Source: patent publication US8215314B2, “Photochemical tissue bonding” (The General Hospital Corporation, priority 2000, dated 2012)

Key:
[1] = test system: corneal incision, rabbit eyes ex vivo; assay: IOP required to produce fluid leakage from corneal incision (IOPL) after PTB, ex vivo; conditions: for mean IOPL: RB 1.5 mM, 514 nm
Description: PTB can be used to seal or repair a tissue, e.g., a wound, e.g., a corneal wound. This example illustrates the experimental procedure designed to test the efficacy of PTB, as described herein, using mammalian corneas ex vivo. Experiments were performed according to the following procedure.
Rabbit eyes were received on ice (Pel-Freez Biologicals) approximately 17-24 hours after sacrifice and enucleation. The eyes were kept on ice and used the same day. The eye to be studied was mounted on a plastic-covered polystyrene block and fixed in position by needles inserted through the extraocular muscles into the polystyrene. The eye was then placed under a dissecting microscope (Reichert Scientific Instruments, Ill.) allowing visualization of the treated area during the entire procedure. A 27 G needle was inserted parallel to the iris, 2 mm anterior to the limbus into clear cornea, and positioned above the lens in the anterior chamber. The needle was connected to both a blood pressure transducer (Harvard Apparatus, Mass.) and a mini-infuser 400 (Bard Harvard) via a T coupler. The pressure transducer consists of a transducer element that is hard wired to an amplifier box and uses a semi-disposable dome with an integral silicone rubber membrane. Pressure inside the dome is transmitted through the membrane to a plastic button whose motion is translated to a voltage. The voltage generated by the transducer amplifier combination is proportional to the […] intraocular pressure (IOP). Signals from the transducer amplifier were recorded using a Macintosh G3 Power book equipped with a PCMICA (DAQCARD—1200) data acquisition card (National Instruments, Tex.). Data acquisition was controlled using programs written using the LabView 4 software package (National Instruments, Tex.). The voltage from the transducer and amplifier was converted to pressure by calibrating with a standing manometer.
Experiments on individual eyes were initiated by increasing the IOP to 30-40 mm Hg, using water infusion at a rate of 1 mL per minute. An incision was made in the cornea, 1 mm from the limbus and parallel to the iris, using a 3.5 mm angled keratome (Becton Dickinson Co.). For each eye the IOP required to produce fluid leakage from the incision (IOPL) was recorded pre- and post-PTB treatment. A photosensitizer, dissolved in phosphate buffer solution (PBS, pH 7.2, Gibco BRL) was applied to the walls of the incision using a Gastight, 50 μl syringe (Hamilton Co.) with a 27 G needle.
Irradiations employed a continuous wave (CW) argon-ion laser (Innova 100; Coherent, Inc., Palo Alto, Calif.) at 488 nm (for Fl and R-5-P), 514.5 nm (for RB) or 351 nm (for NHPT). An argon-ion-pumped dye laser (CR-599; Coherent) with 4-dicyanomethylene-2-methyl-6-(p-dimethylaminostyryl)-4H-pyran dye (Exciton, Inc., Dayton, Ohio) was used for irradiation at 661 nm (for MB). Laser light was coupled into a 1 mm diameter quartz fiber and a 1 cm diameter spot on the tissue was created by using a combination of 1 and 2 inch focal length, S1-UV grade fused silica, biconvex lenses (Esco Products), mounted in a SM1 series cage assembly (Thorlabs, N.J.). The 1 cm diameter circular spot was sufficient to cover the entire incision and the optics were adjusted so that the laser light was incident on the cornea at an angle approximately 45° to the plane of the incision. Dose response curves were obtained by varying the duration of the irradiation at a constant irradiance. In separate experiments the effects of laser irradiance were investigated by comparison of the same delivered dose using different irradiances. The doses used ranged from 124 to 1524 J/cm^2 and the irradiances used were 0.64, 1.27, 2.55 and 3.86 W/cm^2. The laser exposure time varied from 33 seconds for the lowest dose using the highest irradiance to 26 minutes, 27 seconds for the highest dose using the lowest irradiance. The IOPL was recorded immediately following treatment. […]

[2] = test system: cornea; assay: Examination of eyes for thermal damage after PTB (tissue shrinkage, deformation); set-up: species or system rabbit; conditions: RB PTB
Text: Post-treatment, the eyes were examined for the presence of thermal damage. Tissue shrinkage and deformation around the wound site were taken as signs of thermal damage. Thermal damage to the cornea was not observed at the lowest irradiance tested (1.27 W/cm2). […] Thermal effects produced using high irradiances may produce collagen contraction resulting in distortion of the patient's vision.

SMILES: O=C([O-])c1c(Cl)c(Cl)c(Cl)c(Cl)c1-c1c2cc(I)c(=O)c(I)c-2oc2c(I)c([O-])c(I)cc12.[Na+].[Na+] [Rose Bengal]
- mean IOPL post-treatment ([1]; 1.5 mM RB and 514 nm laser light): greater than 300±48 mm Hg
- mean IOPL ([1]; 1270 J/cm^2 at 1.27 W/cm^2): 274 mm Hg
- mean IOPL ([1]; 1270 J/cm^2 at 2.55 W/cm^2): 150 mm Hg
- mean IOPL ([1]; 1270 J/cm^2 at 3.86 W/cm^2): 130 mm Hg
- IOPL ([1]; RB, all doses delivered at 1.27 and 2.55 W/cm^2): greater than 100 mm Hg
- rise in IOPL ([1]; RB, doses below 508 J/cm^2 at any irradiance tested): No significant rise
- increase between pre- and post-treatment IOPL ([1]; photosensitizer alone, no laser irradiation): no significant increase
- thermal damage to the cornea ([2]; 2.55 W/cm2): occasionally
- thermal damage to the cornea ([2]; 762 to 1524 J/cm2 at 3.82 W/cm2): could be observed
- thermal damage to the cornea ([2]; lowest irradiance 1.27 W/cm2): not observed
